Experiments:
[1] = Stability of the conjugate in ammonium acetate buffer, HPLC; type: physicochemical; conditions: for % release of Compound IIA from the conjugate: 37° C., after four hours incubation
Method: Stability of the conjugates was studied using HPLC analysis. The conjugate was incubated in ammonium acetate buffers at pH 4 and 5.2 at 37° C. Each solution was then taken periodically and applied to an HPLC column using a method reported above. The amount of material released from the conjugate was determined and expressed as percent of released material.
To 0.5 mg of conjugate, ammonium acetate 5 mM pH=5.2 buffer solution (200 mL) was added. The solution was warmed at 37° C. and sample was taken periodically and analyzed by HPLC (method 2). Results are expressed as % of released material (8S,10S)-6,8,11-trihydroxy-8-(hydroxyacetyl)-1-methoxy-10-{[(1S,3R,4aS,9S,9aR,10aS)-9-methoxy-1-methyloctahydro-1H-pyrano[4′,3′:4,5][1,3]oxazolo[2,3-c][1,4]oxazin-3-yl]oxy}-7,8,9,10-tetrahydrotetracene-5,12-dione (Compound IIA) from the conjugate. […]

[2] = tested on: doxorubicin-resistant (DoxRes) HER2 cells; assay: CellTiter-Glo in vitro cell proliferation assay, doxorubicin-resistant HER2; type: cell-based; conditions: continuous exposure, 3 days
Excerpt: (§1) Cell-based in vitro assays may be used to measure viability, i.e. proliferation (IC50), cytotoxicity (EC50), and induction of apoptosis (caspase activation) of the ADC. The CellTiter-Glo® Luminescent Cell Viability Assay is a commercially available (Promega Corp., Madison, Wis.), homogeneous assay method based on the recombinant expression of Coleoptera luciferase (U.S. Pat. Nos. 5,583,024; 5,674,713; 5,700,670). This cell proliferation assay determines the number of viable cells in culture based on quantitation of the ATP present, an indicator of metabolically active cells (Crouch et al (1993) J. Immunol. Meth. 160:81-88; U.S. Pat. No. 6,602,677). The CellTiter-Glo® Assay is conducted in 96 well format, making it amenable to automated high-throughput screening (HTS) (Cree et al (1995) AntiCancer Drugs 6:398-404). The homogeneous assay procedure involves adding the single reagent (CellTiter-Glo® Reagent) directly to cells cultured in serum-supplemented medium. Cell washing, removal of medium and multiple pipetting steps are not required. The system detects as few as 15 cells/well in a 384-well format in 10 minutes after adding reagent and mixing.
(§2) The in vitro potency of antibody-drug conjugates was measured by a cell proliferation assay (FIGS. 8-29). The CellTiter-Glo® Luminescent Cell Viability Assay is a commercially available (Promega Corp., Madison, Wis.), homogeneous assay method based on the recombinant expression of Coleoptera luciferase (U.S. Pat. Nos. 5,583,024; 5674,713; 5,700,670). This assay determines the number of viable cells in culture based on quantitation of the ATP present, an indicator of metabolically active cells (Crouch et al (1993) J. Immunol. Meth. 160:81-88; U.S. Pat. No. 6,602,677). The CellTiter-Glo® Assay was conducted in 96 well format, making it amenable to automated high-throughput screening (HTS) (Cree et al (1995) AntiCancer Drugs 6:398-404). The homogeneous assay procedure involves adding the single reagent (CellTiter-Glo® Reagent) directly to cells cultured in serum-supplemented medium.
(§3) The homogeneous “add-mix-measure” format results in cell lysis and generation of a luminescent signal proportional to the amount of ATP present. The substrate, Beetle Luciferin, is oxidatively decarboxylated by recombinant firefly luciferase with concomitant conversion of ATP to AMP and generation of photons. Viable cells are reflected in relative luminescence units (RLU). Data can be recorded by luminometer or CCD camera imaging device. The luminescence output is presented as RLU, measured over time. Alternatively, photons from luminescence can be counted in a scintillation counter in the presence of a scintillant. The light units can be represented then as CPS—counts per second.
(§4) Efficacy of ADC were measured by a cell viability assay employing the following protocol, adapted from CellTiter Glo Luminescent Cell Viability Assay, Promega Corp. Technical Bulletin TB288 and Mendoza et al (2002) Cancer Res. 62:5485-5488: • 1. An aliquot of 50 μl of cell culture containing about 1000 or more cells, including: HER2-expressing and CD22-expressing cells, in medium was deposited in each well of a 96-well, opaque-walled, clear bottom plate. • 2. ADC (50 μl) was added to triplicate experimental wells to final concentration of 10 μg/mL, with “no ADC” control wells receiving medium alone, and incubated for 3 or more days. • 3. The plates were equilibrated to room temperature for approximately 30 minutes. • 4. CellTiter-Glo Reagent (100 μl) was added. • 5. The contents were mixed for 2 minutes on an orbital shaker to induce cell lysis. • 6. The plate was incubated at room temperature for 10 minutes to stabilize the luminescence signal. • 7. Luminescence was recorded and reported in graphs as RLU=relative luminescence units.

SK-BR-3 cells = assay: CellTiter-Glo in vitro cell proliferation assay, SK-BR-3; type: cell-based; conditions: continuous exposure, 3 days
Excerpt: as §1, §2, §3, §4

MCF7 cells = assay: CellTiter-Glo in vitro cell proliferation assay, MCF7; type: cell-based, human; conditions: continuous exposure, 3 days
Excerpt: as §1, §2, §3, §4

BT-474 cells = assay: CellTiter-Glo in vitro cell proliferation assay, BT-474; type: cell-based; conditions: continuous exposure, 3 days
Excerpt: as §1, §2, §3, §4

tumor models = conditions: cited from earlier work

## CNC(=O)COC1(OCC(=O)[C@]2(O)Cc3c(O)c4c(c(O)c3[C@@H](O[C@H]3C[C@H]5[C@H](O[C@@H]6[C@@H](OC)OCCN65)[C@H](C)O3)C2)C(=O)c2c(OC)cccc2C4=O)CCCCC1 [Compound 2, N-methyl-2-[(1-{2-oxo-2-[(2S,4S)-2,5,12-trihydroxy-7-methoxy-4-{[(1S,3R,4aS,9S,9aR,10aS)-9-methoxy-1-methyloctahydro-1H-pyrano[4′,3′:4,5][1,3]oxazolo[2,3-c][1,4]oxazin-3-yl]oxy}-6,11-dioxo-1,2,3,4,6,11-hexahydrotetracen-2-yl]ethoxy}cyclohexyl)oxy]acetamide]
[1]; pH 5.2, FIG. 1
  stability at pH 5.2, release of compound of formula (IIA) over time, in words: increased release of the free compound of the formula (IIA)

## COc1cccc2c1C(=O)c1c(O)c3c(c(O)c1C2=O)C[C@@](O)(/C(CO)=N/NC(=O)CCSSC[C@H](NC(C)=O)C(=O)O)C[C@@H]3O[C@H]1C[C@H]2[C@H](O[C@@H]3[C@@H](OC)OCCN32)[C@H](C)O1 [Compound 12, N-acetyl-3-({3-[(2E)-2-{2-hydroxy-1-[(2S,4S)-2,5,12-trihydroxy-7-methoxy-4-{[(1S,3R,4aS,9S,9aR,10aS)-9-methoxy-1-methyloctahydro-1H-pyrano[4′,3′:4,5][1,3]oxazolo[2,3-c][1,4]oxazin-3-yl]oxy}-6,11-dioxo-1,2,3,4,6,11-hexahydrotetracen-2-yl]ethylidene}hydrazinyl]-3-oxopropyl}disulfanyl)-L-alanine]
[1]; pH 4.2 buffer solution
  % release of Compound IIA from the conjugate: 100%
[1]; pH 5.2 buffer solution
  % release of Compound IIA from the conjugate: 90%

## COc1cccc2c1C(=O)c1c(O)c3c(c(O)c1C2=O)C[C@@](O)(C(=O)COC1CCCC(COCC(=O)ON2C(=O)CCC2=O)O1)C[C@@H]3O[C@H]1C[C@H]2[C@H](O[C@@H]3[C@@H](OC)OCCN32)[C@H](C)O1 (stereo partly drawn) [Compound 50, 1-({[(6-{2-oxo-2-[(2S,4S)-2,5,12-trihydroxy-7-methoxy-4-{[(1S,3R,4aS,9S,9aR,10aS)-9-methoxy-1-methyloctahydro-1H-pyrano[4′,3′:4,5][1,3]oxazolo[2,3-c][1,4]oxazin-3-yl]oxy}-6,11-dioxo-1,2,3,4,6,11-hexahydrotetracen-2-yl]ethoxy}tetrahydro-2H-pyran-2-yl)methoxy]acetyl}oxy)pyrrolidine-2,5-dione]
[2]
  DoxRes HER2 in vitro cell viability at 3 days, anti-proliferative activity in words: minimal anti-proliferative activity
SK-BR-3 cells
  SK-BR-3 in vitro cell viability at 3 days, anti-proliferative activity in words: minimal anti-proliferative activity
MCF7 cells
  MCF7 in vitro cell viability at 3 days, anti-proliferative activity in words: inactive
BT-474 cells
  BT-474 in vitro cell viability at 3 days, anti-proliferative activity in words: inactive

## COc1cccc2c1C(=O)c1c(O)c3c(c(O)c1C2=O)C[C@@](O)(C(=O)COC1CCCC(COCC(=O)NCCN2C(=O)C=CC2=O)O1)C[C@@H]3O[C@H]1C[C@H]2[C@H](O[C@@H]3[C@@H](OC)OCCN32)[C@H](C)O1 (some centres unmarked) [Compound 51]
[2]
  DoxRes HER2 in vitro cell viability at 3 days, anti-proliferative activity in words: minimal anti-proliferative activity
SK-BR-3 cells
  SK-BR-3 in vitro cell viability at 3 days, anti-proliferative activity in words: minimal anti-proliferative activity
MCF7 cells
  MCF7 in vitro cell viability at 3 days, anti-proliferative activity in words: inactive
BT-474 cells
  BT-474 in vitro cell viability at 3 days, anti-proliferative activity in words: inactive

## COc1cccc2c1C(=O)c1c(O)c3c(c(O)c1C2=O)C[C@@](O)(/C(CO)=N/NC(=O)CCCCCN1C(=O)C=CC1=O)C[C@@H]3O[C@H]1C[C@H]2[C@H](O[C@@H]3[C@@H](OC)OCCN32)[C@H](C)O1 [Compound 52, 6-(2,5-dioxo-2,5-dihydro-1H-pyrrol-1-yl)-N′-{(1E)-2-hydroxy-1-[(2S,4S)-2,5,12-trihydroxy-7-methoxy-4-{[(1S,3R,4aS,9S,9aR,10aS)-9-methoxy-1-methyloctahydro-1H-pyrano[4′,3′:4,5][1,3]oxazolo[2,3-c][1,4]oxazin-3-yl]oxy}-6,11-dioxo-1,2,3,4,6,11-hexahydrotetracen-2-yl]ethylidene}hexanehydrazide]
[2]
  DoxRes HER2 in vitro cell viability at 3 days, anti-proliferative activity in words: less potent than free Ant
SK-BR-3 cells
  SK-BR-3 in vitro cell viability at 3 days, anti-proliferative activity in words: less potent than free Ant
MCF7 cells
  MCF7 in vitro cell viability at 3 days, anti-proliferative activity in words: minial anti-proliferative activity
BT-474 cells
  BT-474 in vitro cell viability at 3 days, anti-proliferative activity in words: minimal anti-proliferative activity

## COc1cccc2c1C(=O)c1c(O)c3c(c(O)c1C2=O)C[C@@](O)(/C(CO)=N/NC(=O)CCSSc1ccccn1)C[C@@H]3O[C@H]1C[C@H]2[C@H](O[C@@H]3[C@@H](OC)OCCN32)[C@H](C)O1 [Compound 53, N′-{(1E)-2-hydroxy-1-[(2S,4S)-2,5,12-trihydroxy-7-methoxy-4-{[(1S,3R,4aS,9S,9aR,10aS)-9-methoxy-1-methyloctahydro-1H-pyrano[4′,3′:4,5][1,3]oxazolo[2,3-c][1,4]oxazin-3-yl]oxy}-6,11-dioxo-1,2,3,4,6,11-hexahydrotetracen-2-yl]ethylidene}-3-(pyridin-2-yldisulfanyl)propanehydrazide]
[2]
  DoxRes HER2 in vitro cell viability at 3 days, anti-proliferative activity in words: less potent than free Ant
SK-BR-3 cells
  SK-BR-3 in vitro cell viability at 3 days, anti-proliferative activity in words: less potent than free Ant
MCF7 cells
  MCF7 in vitro cell viability at 3 days, anti-proliferative activity in words: minial anti-proliferative activity
BT-474 cells
  BT-474 in vitro cell viability at 3 days, anti-proliferative activity in words: minimal anti-proliferative activity

## COc1cccc2c1C(=O)c1c(O)c3c(c(O)c1C2=O)C[C@@](O)(C(=O)CO)C[C@@H]3O[C@H]1C[C@H](N2CCO[C@H](OC)C2)[C@H](O)[C@H](C)O1 [nemorubicin, (8S,10S)-6,8,11-trihydroxy-10-((2R,4S,5S,6S)-5-hydroxy-4-((S)-2-methoxymorpholino)-6-methyltetrahydro-2H-pyran-2-yloxy)-8-(2-hydroxyacetyl)-1-methoxy-7,8,9,10-tetrahydrotetracene-5,12-dione]
Tumor models
  antitumor activity in in vivo tumor models, in words: promising antitumor activity on experimental murine tumors
